Reference: ChEMBL document CHEMBL6182905, “Fluorinated sulfonamide-flavonoid derivatives as novel Keap1-Nrf2 inhibitors: Potent induction of cytoprotective gene HO-1 in vivo” (Eur J Med Chem, 2025)
Activity calls are given as the source filed them. No cut-off for these calls is given here.

Assays:
[1] = target: T1, Nuclear factor erythroid 2-related factor 2 (Mus musculus) (UniProt Q60795); assay: Activation of Nrf2 in LPS-stimulated mouse AML12 cells assessed as upregulation of Akr1c1 mRNA expression by measuring fold change at 10 uM incubated for 16 hrs relative to sulforaphane; assay type: cell-based; settings: filed as activator
T1 sequence (whole entry): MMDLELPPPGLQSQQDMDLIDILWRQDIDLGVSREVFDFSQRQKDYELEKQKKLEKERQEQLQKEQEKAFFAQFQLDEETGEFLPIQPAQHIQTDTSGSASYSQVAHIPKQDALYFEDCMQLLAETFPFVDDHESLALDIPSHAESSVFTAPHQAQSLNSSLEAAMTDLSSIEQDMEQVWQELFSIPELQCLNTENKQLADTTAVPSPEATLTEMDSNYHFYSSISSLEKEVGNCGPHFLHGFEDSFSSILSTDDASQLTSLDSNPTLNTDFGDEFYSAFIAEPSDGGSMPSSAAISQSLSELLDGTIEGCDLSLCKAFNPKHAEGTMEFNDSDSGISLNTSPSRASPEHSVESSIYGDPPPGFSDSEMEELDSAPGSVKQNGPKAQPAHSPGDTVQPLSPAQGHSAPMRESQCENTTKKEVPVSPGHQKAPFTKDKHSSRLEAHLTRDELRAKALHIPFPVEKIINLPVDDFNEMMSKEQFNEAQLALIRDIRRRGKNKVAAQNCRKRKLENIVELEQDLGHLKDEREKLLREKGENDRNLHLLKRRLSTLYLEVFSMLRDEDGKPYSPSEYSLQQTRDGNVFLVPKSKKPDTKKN

[2] = target: T1, Nuclear factor erythroid 2-related factor 2 (Mus musculus); assay: Activation of Nrf2 in LPS-stimulated mouse AML12 cells assessed as upregulation of HO-1 mRNA expression incubated for 16 hrs by RT-qPCR analysis; assay type: cell-based; settings: filed as activator, dose 0.5-10 µM
[3] = target: T1, Nuclear factor erythroid 2-related factor 2 (Mus musculus); assay: Activation of Nrf2 in LPS-stimulated mouse AML12 cells assessed as upregulation of HO-1 protein level incubated for 16 hrs by Western blot analysis; assay type: cell-based; settings: filed as activator, dose 0.5-10 µM
[4] = target: T1, Nuclear factor erythroid 2-related factor 2 (Mus musculus); assay: Activation of Nrf2 in LPS-stimulated mouse AML12 cells assessed as upregulation of Nrf2 protein level incubated for 16 hrs by Western blot analysis; assay type: cell-based; settings: filed as activator, dose 0.5-10 µM
[5] = target: T1, Nuclear factor erythroid 2-related factor 2 (Mus musculus); assay: Activation of Nrf2 in LPS-stimulated mouse AML12 cells assessed as upregulation of GCLM protein level incubated for 16 hrs by Western blot analysis; assay type: cell-based; settings: filed as activator, dose 0.5-10 µM
[6] = Drug concentration in liver of APAP-induced acute liver injury male C57BL/6 mouse model at 12.5 mg/kg, ip pre-administered with compound for 1 hr followed by APAP induction and measured after 12 hrs by Mass spectrometric analysis; assay type: ADME, organism-based; settings: read-out: Ct
[7] = Drug concentration in liver of APAP-induced acute liver injury male C57BL/6 mouse model at 25 mg/kg, ip pre-administered with compound for 1 hr followed by APAP induction and measured after 12 hrs by Mass spectrometric analysis; assay type: ADME, organism-based; settings: read-out: Ct
Mus musculus [8] = assay: Anti-inflammatory activity against APAP-induced male C57BL/6 mouse model of acute liver injury assessed as upregulation of GCLM mRNA level in liver administered intraperitoneally and measured after 12 hrs by RT-qPCR analysis; assay type: functional, organism-based; settings: dose 12.5-25 mg/kg, route ip
Mus musculus [9] = assay: Anti-inflammatory activity against APAP-induced male C57BL/6 mouse model of acute liver injury assessed as restoration of HO-1 protein level in liver at 12.5 to 25 mg/kg, ip measured after 12 hrs by Western blot analysis; assay type: functional, organism-based; settings: dose 12.5-25 mg/kg
Mus musculus [10] = assay: Anti-inflammatory activity against APAP-induced male C57BL/6 mouse model of acute liver injury assessed as restoration of GCLM protein level in liver at 12.5 to 25 mg/kg, ip measured after 12 hrs by Western blot analysis; assay type: functional, organism-based; settings: dose 12.5-25 mg/kg
Mus musculus [11] = assay: In vivo inhibition of Keap1/Nrf2 protein-protein interaction in APAP-induced male C57BL/6 mouse model of acute liver injury administered intraperitoneally and measured after 12 hrs by co-immunoprecipitation analysis; assay type: functional, organism-based; settings: dose 12.5-25 mg/kg, route ip
Mus musculus [12] = assay: Hepatoprotective activity in APAP-induced male C57BL/6 mouse model of acute liver injury assessed as attenuation of catalase (CAT) level in liver at 12.5 to 25 mg/kg, ip measured after 12 hrs; assay type: functional, organism-based; settings: dose 12.5-25 mg/kg
Mus musculus [13] = assay: Hepatoprotective activity in APAP-induced male C57BL/6 mouse model of acute liver injury assessed as reduction in cell apoptosis in liver at 12.5 to 25 mg/kg, ip measured after 12 hrs by TUNEL assay; assay type: functional, organism-based; settings: dose 12.5-25 mg/kg
Mus musculus [14] = assay: Anti-inflammatory activity in APAP-induced C57BL/6 mouse model of acute liver injury assessed as reduction in neutrophil invasion in liver at 12.5 to 25 mg/kg, ip measured after 12 hrs by immunohistochemical staining based analysis; assay type: functional, organism-based; settings: dose 12.5-25 mg/kg
Mus musculus [15] = assay: Anti-inflammatory activity in APAP-induced C57BL/6 mouse model of acute liver injury assessed as reduction in macrophage aggregation in liver at 12.5 to 25 mg/kg, ip measured after 12 hrs by F4/80 staining based analysis; assay type: functional, organism-based; settings: dose 12.5-25 mg/kg
Mus musculus [16] = assay: Anti-inflammatory activity in APAP-induced C57BL/6 mouse model of acute liver injury assessed as reduction in TNFalpha mRNA level in liver at 12.5 to 25 mg/kg, ip measured after 12 hrs by ELISA; assay type: functional, organism-based; settings: dose 12.5-25 mg/kg
Mus musculus [17] = assay: Anti-inflammatory activity in APAP-induced C57BL/6 mouse model of acute liver injury assessed as reduction in IL-6 level in serum at 12.5 to 25 mg/kg, ip measured after 12 hrs by ELISA; assay type: functional, organism-based; settings: dose 12.5-25 mg/kg
Mus musculus [18] = assay: Anti-inflammatory activity in APAP-induced C57BL/6 mouse model of acute liver injury assessed as reduction in TNFalpha level in serum at 12.5 to 25 mg/kg, ip measured after 12 hrs by ELISA; assay type: functional, organism-based; settings: dose 12.5-25 mg/kg
[19] = Toxicity in C57BL/6J mouse assessed as histopathological change in cardiovascular tissue at 25 mg/kg, ip by H and E staining based analysis; assay type: organism-based; settings: in vivo
[20] = Toxicity in C57BL/6J mouse assessed as histopathological change in respiratory tissue at 25 mg/kg, ip by H and E staining based analysis; assay type: organism-based; settings: in vivo
[21] = Toxicity in C57BL/6J mouse assessed as histopathological change in renal tissue at 25 mg/kg, ip by H and E staining based analysis; assay type: organism-based; settings: in vivo
[22] = Elimination half life in Sprague-Dawley rat at 1 mg/kg, iv; assay type: ADME, organism-based; settings: in vivo, read-out: beta t1/2 (converted)
[23] = Elimination half life in Sprague-Dawley rat at 10 mg/kg, po; assay type: ADME, organism-based; settings: in vivo, read-out: beta t1/2 (converted)
[24] = Tmax in Sprague-Dawley rat at 10 mg/kg, po; assay type: ADME, organism-based; settings: in vivo
[25] = Absolute oral bioavailability in Sprague-Dawley rat at 10 mg/kg; assay type: ADME, organism-based; settings: in vivo
Mus musculus [26] = assay: Anti-inflammatory activity in APAP-induced Nrf2 knockout male C57BL/6 mouse model of acute liver injury assessed as increase in MPO positive cells in liver at 25 mg/kg, ip preadministered with compound followed by APAP induction and measured after 12 hrs by staining based analysis; assay type: functional, organism-based
Mus musculus [27] = assay: Anti-inflammatory activity in APAP-induced Nrf2 knockout male C57BL/6 mouse model of acute liver injury assessed as increase in F4/80 positive cells in liver at 25 mg/kg, ip preadministered with compound followed by APAP induction and measured after 12 hrs by staining based analysis; assay type: functional, organism-based

COc1ccc(-c2cc(=O)c3ccc(NS(=O)(=O)c4ccc(F)cc4)cc3o2)cc1
fold change (FC) [1]: 1.8 | Activity [2]: Dose-dependent-effect | Activity [3]: Dose-dependent-effect | Activity [4]: Dose-dependent-effect | Activity [5]: Dose-dependent-effect | concentration at 13 h [6]: 175 ng/g | concentration at 13 h [7]: 485 ng/g | Activity (Mus musculus [8]): Dose-dependent-effect | Activity (Mus musculus [9]): Active | Activity (Mus musculus [10]): Active | inhibition (Mus musculus [11]): Dose-dependent-effect | Activity (Mus musculus [12]): Active | Activity (Mus musculus [13]): Active | Activity (Mus musculus [14]): Active | Activity (Mus musculus [15]): Active | Activity (Mus musculus [16]): Active | Activity (Mus musculus [17]): Active | Activity (Mus musculus [18]): Active | Activity [19]: Non-toxic | Activity [20]: Non-toxic | Activity [21]: Non-toxic | half-life [22]: 5.45 h | half-life [23]: 3.47 h | Tmax [24]: 1.5 h | bioavailability [25]: 19.9% | Activity (Mus musculus [26]): inactive | Activity (Mus musculus [27]): inactive
